From patent publication US4578395A, “Certain aralkylaminoalkyl esters of 1,4 dihydropyridines as antihypertensive” (Teijin Limited, priority 1983, dated 1986)
Where a name gives a salt, the structure may show the parent alone.

Assays:
conscious rats = experiment: Antihypertensive activity by oral administration in conscious rats; format: in vivo, Male Wistar rats; details: 10 mg/kg oral
Procedure: When one hour or more passed after the rats were aroused, they were administered the test compound orally.
The blood pressure in the femoral artery was recorder and changes in the mean blood pressure were obtained from the following equation. [formula]

anesthetized rat = experiment: Hypotensive activity by intravenous administration in anesthetized rat (Example 27); format: in vivo, Male Wistar rats; details: for ED20: Rattus norvegicus, iv, anesthetized Wistar rats about 300 g, read-out: ED20 (dose decreasing mean blood pressure by 20%); for Duration T1/2: i.v.
Procedure: (§1) Male Wistar rats weighing about 250 g were used. They were anesthetized with urethane (500 mg/kg) and α-chloralose (100 mg/kg) intraperitoneal injection.
(§2) The test compound was dissolved in a small quantity of ethanol and the solution, which was then diluted with physiological saline to have a final concentration of ethanol kept at 5% or lower, was intravenously injected through a catheter inserted into the femoral vein.
(§3) The blood pressure was recorded with the pressure transducer via the catheter inserted into the common carotid artery of the rats.
(§4) Hypotensive activity of the test compound was indicated by the dose (ED20 μ/kg) required for decreasing the mean blood pressure by 20% as compared with the mean blood pressure before the administration.
(§5) To determine the duration of the hypotensive action of the test compound, half-life of hypotensive action T^1 /2) was measured.
Male Wistar rats weighing about 300 g were used. The measurement of hypotensive activity was conducted according to the same method as Example 23.

rats periphery = experiment: Vasodilative activity in rats periphery (constant volume blood perfusion); format: in vivo, Male SD strain rats
Procedure: Male SD strain rats, weighing 350 g to 450 g, were used. They were anesthetized with sodium pentobarbital 60 mg/kg i.p. […] The solution of the test compound was infused into the perfusion blood on the peripheral side with a perfusion pump, and changes in perfusion pressure were measured. The activity of the test compound was determined as the ratio of the relative activity of the test compound against papaverine obtained from the dose-response curves.

anesthetized rats = experiment: Hypotensive activity by intravenous administration in anesthetized rats (Example 23); format: in vivo, Male Wistar rats; details: for ED20: Rattus norvegicus, iv, anesthetized Wistar rats about 250 g, read-out: ED20 (dose decreasing mean blood pressure by 20%); for Duration T1/2 (half-life of hypotensive action): i.v., dose 10
Procedure: as §1, §2, §3, §4, §5

[1] = system: SHR (Spontaneously Hypertensive Rats); experiment: Antihypertensive activity in SHR; format: in vivo, Male SHR (Spontaneously Hypertensive Rats); details: no anesthesia
Procedure: Male SHR (14 to 16 weeks old) fasted for more than 16 hours were used. […] When one hour or more passed after the rats woke up out of the ether, they were administered the test compound orally. The blood pressure was measured with the pressure transducer via the catheter inserted into the femoral artery.
The test compound was dissolved in a small quantity of ethanol and diluted with water to be adjusted for administration.
Changes in the mean blood pressure were obtained from the equation mentioned below. The Basic and Clinical Study, vol. 14, p. 4495 (1980) is a useful literature to be referred to for making this kind of experiment. [formula]

[2] = system: peripheral blood vessels (femoral artery); experiment: Action on peripheral blood vessels (femoral blood flow) in anesthetized dog; format: in vivo, male beagle dog; details: 3 μg/kg i.v.
Procedure: (§6) A male beagle dog weighing about 10 kg was anesthetized with sodium pentobarbital (35 mg/kg i.v.). The test compound was dissolved in a small quantity of ethanol, diluted with an isotonic sodium chloride solution, and was injected into the right femoral vein.
The carotic blood flow (CBF) and the femoral blood flow (FBF) were measured with the electromagnetic blood flowmeter (MFV-1200 made by Japan Photoelectric Co., Ltd.) via probe for measuring the blood flow volume set in the right common carotid artery and the left femoral artery of the male beagle dog respectively.

platelet aggregation = experiment: In vitro inhibitory activity of platelet aggregation; format: cell-based, male Hartley guinea pigs; details: Cavia porcellus, Platelet; Conc. 100 μM, AA 75 μM
Procedure: The in vitro platelet aggregation inhibiting activities of the compounds of the invention were examined by using guinea pigs. Blood was withdrawn by cardiac puncture from male Hartley guinea pigs weighing […]. A mixture of a 3.8% trisodium citrate solution and the blood in a ratio of 1:9 was centrifuged at a speed of 800 rpm for 10 minutes. The upper layer was separated as platelet-rich plasma (PRP). The lower layer was further centrifuged at a separated as platelet-poor plasma (PPP). The number of platelets was adjusted to 5×10^5 /μl to 6×10^5 /μl by filuting the PRP with PPP. 25 microliters of the test compounds prepared as shown below was added in an amount of 25 microliters of PRP after the adjustment, and the mixture was pre-incubated at 37° C. for 2 minutes, and then 75 μM (final) of AA was added. By using an aggregometer (37° C., 1,100 rpm), changes in transmission were recorded.
The test compound was dissolved in ethanol to a concentration of 10 mg/ml. When its activity was measured, it was used after being diluted with phosphate buffer (pH 7.4). Furthermore, after dilution with the buffer, the test compound was left to stand at 0° C. for 4 hours, and the activity of the test compound was similarly measured.
The rate of inhibition of platelet aggregation was determined from the following equation. [formula]

[3] = Light stability in methanol solution; format: physicochemical
Procedure: 1 mg of compound (156) hydrochloride was dissolved in 100 ml of methanol. The solution was placed in a transparent glass test tube, and after the test tube was tightly stoppered, it was allowed to stand by the window of the laboratory. Part of the solution was taken at regular intervals and subjected to high performance liquid chromatograph to determined the remaining quantity of compound (156) hydrochloride contained in the solution. The same experiment was conducted with nicardipine hydrochloride as the control.

mean blood pressure = experiment: Action on mean blood pressure in anesthetized dog; format: in vivo, male beagle dog; details: 10 μg/kg i.v.
Procedure: as §6
The mean blood pressure (MBP) was measured with the pressure transwer via the cannula inserted into the right femoral artery of the male beagle dog. The changes in the blood pressure after the administration of the test compound are shown in percentages in Table 5.

In the case of `COC(=O)C1=C(C)NC(C)=C(C(=O)OCC(C)(C)CN(C)Cc2c(Cl)cccc2Cl)C1c1cccc(Cl)c1F` (stereo not drawn) [(202) hydrochloride, 3-(N-2,6-Dichlorobenzyl-N-methylamino)-2,2-dimethylpropyl methyl 2,6-dimethyl-4-(3-chloro-2-fluorophenyl)-1,4-dihydropyridine-3,5-dicarboxylate], the “Changes in mean blood pressure” value (conscious rats; after 30 min) is reported as -39 mmHg, the “Changes in mean blood pressure” value (conscious rats; after 60 min) is reported as -40 mmHg and the “Changes in mean blood pressure” value (conscious rats; after 90 min) is reported as -38 mmHg. For the same compound, the “Changes in mean blood pressure” value (conscious rats; after 2 hr) was -33 mmHg, the “Changes in mean blood pressure” value (conscious rats; after 3 hr) was -33 mmHg and the “Changes in mean blood pressure” value (conscious rats; after 5 hr) was -24 mmHg. The “Changes in mean blood pressure” value (conscious rats; after 7 hr) was -23 mmHg.

With `COC(=O)C1=C(C)NC(C)=C(C(=O)OCC(C)(C)CN(C)C)C1c1cccc([N+](=O)[O-])c1Cl` (stereo not drawn) [reference compound] the ED20 (anesthetized rat) was 0.288 mg/kg and the “Duration T1/2” value (anesthetized rat; dose 300) was 3.5 min.

For `COC(=O)C1=C(C)NC(C)=C(C(=O)OCCN(C)Cc2ccccc2)C1c1cccc([N+](=O)[O-])c1F` (stereo not drawn) [(104) hydrochloride, 2-(N-Benzyl-N-methylamino)ethyl methyl 2,6-dimethyl-4-(2-fluoro-3-nitrophenyl)-1,4-dihydropyridine-3,5-dicarboxylate], the “relative vasodilative activity against papaverine” value (rats periphery; dosage 0.1 μg/kg) was 30 times and the “relative vasodilative activity against papaverine” value (rats periphery; dosage 1 μg/kg) was 50 times.

With `COC(=O)C1=C(C)NC(C)=C(C(=O)OCC(C)(C)CN(C)C)C1c1cccc(Cl)c1F` (stereo not drawn) [reference compound] the ED20 (anesthetized rat) was 0.0807 mg/kg and the “Duration T1/2” value (anesthetized rat; dose 100) was 4.6 min.

For `COC(=O)C1=C(C)NC(C)=C(C(=O)OCC(C)(C)CN(C)Cc2ccccc2)C1c1cccc(Cl)c1F` (stereo not drawn) [(156) hydrochloride, 3-(N-Benzyl-N-methylamino)-2,2-dimethylpropyl methyl 2,6-dimethyl-4-(3-chloro-2-fluorophenyl)-1,4-dihydropyridine-3,5-dicarboxylate], the ED20 (anesthetized rats) was 0.0149 mg/kg, the “Duration T1/2 (half-life of hypotensive action)” value (anesthetized rats) was 20 min and the “Changes in MBP” value ([1]; 3 mg/kg oral, 30 min.) was -41 ± 8 mmHg. The “Changes in MBP” value ([1]; 3 mg/kg oral, 60 min.) was -39 ± 7 mmHg, the “Changes in MBP” value ([1]; 3 mg/kg oral, 90 min.) was -35 ± 5 mmHg and the “Changes in MBP” value ([1]; 3 mg/kg oral, 2 hr.) was -28 ± 6 mmHg. For the same compound, the “Changes in MBP” value ([1]; 3 mg/kg oral, 3 hr.) was -28 ± 6 mmHg, the “Changes in MBP” value ([1]; 3 mg/kg oral, 5 hr.) was -18 mmHg and the “Changes in MBP” value ([1]; 3 mg/kg oral, 7 hr.) was -20 ± 4 mmHg. The “Changes in FBF” value ([2]; 0.5 min.) was 0 ± 0%, the “Changes in FBF” value ([2]; 1 min.) was -1 ± 3% and the “Changes in FBF” value ([2]; 2 min.) was “+5 ± 5%”. The “Changes in FBF” value ([2]; 5 min.) was “+19 ± 5%”, the “Changes in FBF” value ([2]; 10 min.) was “+20 ± 10%” and the ED20 (anesthetized rat) was 0.0245 mg/kg. The “Duration T1/2” value (anesthetized rat; dose 30) was 8.5 min, the inhibition at 100 µM (platelet aggregation) was -1.9 ± 2.5% and the “light stability compared with nicardipine hydrochloride” value [3] was “better light stability than nicardipine hydrochloride”. For the same compound, the remaining at 2 h ([3]; light, 2 hr., read-out: Remaining percentage) was 100%, the remaining at 4 h ([3]; light, 4 hr., read-out: Remaining percentage) was 99% and the remaining at 6 h ([3]; light, 6 hr., read-out: Remaining percentage) was 100%.

With `COC(=O)C1=C(C)NC(C)=C(C(=O)OCC(C)(C)CN(C)Cc2ccccc2)C1c1cccc([N+](=O)[O-])c1F` (stereo not drawn) [(130) hydrochloride, 3-(N-Benzyl-N-methylamino)-2,2-dimethylpropyl methyl 2,6-dimethyl-4-(2-fluoro-3-nitrophenyl)-1,4-dihydropyridine-3,5-dicarboxylate] the ED20 (anesthetized rats) was 0.016 mg/kg, the “Duration T1/2 (half-life of hypotensive action)” value (anesthetized rats) was > 30 min and the “Changes in MBP” value ([1]; 3 mg/kg oral, 30 min.) was -67 ± 13 mmHg. For the same compound, the “Changes in MBP” value ([1]; 3 mg/kg oral, 60 min.) was -62 ± 13 mmHg, the “Changes in MBP” value ([1]; 3 mg/kg oral, 90 min.) was -60 ± 14 mmHg and the “Changes in MBP” value ([1]; 3 mg/kg oral, 2 hr.) was -54 ± 11 mmHg. For the same compound, the “Changes in MBP” value ([1]; 3 mg/kg oral, 3 hr.) was -48 ± 13 mmHg, the “Changes in MBP” value ([1]; 3 mg/kg oral, 5 hr.) was -40 mmHg and the “Changes in MBP” value ([1]; 3 mg/kg oral, 7 hr.) was -29 ± 8 mmHg. For the same compound, the “Changes in MBP” value (mean blood pressure; 0.5 min.) was -7 ± 1%, the “Changes in MBP” value (mean blood pressure; 1 min.) was -11 ± 1% and the “Changes in MBP” value (mean blood pressure; 2 min.) was -14 ± 1%. For the same compound, the “Changes in MBP” value (mean blood pressure; 5 min.) was -16 ± 2%, the “Changes in MBP” value (mean blood pressure; 10 min.) was -19 ± 3% and the “Changes in MBP” value (mean blood pressure; 15 min.) was -20 ± 3%. The ED20 (anesthetized rat) was 0.0147 mg/kg and the “Duration T1/2” value (anesthetized rat; dose 10) was 15 min.

In the case of `COC(=O)C1=C(C)NC(C)=C(C(=O)OCCN(C)Cc2ccccc2)C1c1cccc(Cl)c1F` (stereo not drawn) [(106) hydrochloride, 2-(N-Benzyl-N-methylamino)ethyl methyl 2,6-dimethyl-4-(3-chloro-2-fluorophenyl)-1,4-dihydropyridine-3,5-dicarboxylate], the “Changes in MBP” value ([1]; 10 mg/kg oral, 30 min.) is reported as -56 ± 6 mmHg, the “Changes in MBP” value ([1]; 10 mg/kg oral, 60 min.) is reported as -53 ± 11 mmHg and the “Changes in MBP” value ([1]; 10 mg/kg oral, 90 min.) is reported as -46 ± 10 mmHg. The “Changes in MBP” value ([1]; 10 mg/kg oral, 2 hr.) was -47 ± 11 mmHg, the “Changes in MBP” value ([1]; 10 mg/kg oral, 3 hr.) was -39 ± 10 mmHg and the “Changes in MBP” value ([1]; 10 mg/kg oral, 5 hr.) was -37 mmHg. The “Changes in MBP” value ([1]; 10 mg/kg oral, 7 hr.) was -31 ± 7 mmHg.

In the case of `COC(=O)C1=C(C)NC(C)=C(C(=O)OCC(C)(C)CN(C)Cc2ccccc2)C1c1cccc([N+](=O)[O-])c1` (stereo not drawn) [(302) hydrochloride, 3-(N-Benzyl-N-methylamino)-2,2-dimethylpropyl methyl 2,6-dimethyl-4-(3-nitrophenyl)-1,4-dihydropyridine-3,5-dicarboxylate], the ED20 (anesthetized rats) is reported as 0.0091 mg/kg and the “Duration T1/2 (half-life of hypotensive action)” value (anesthetized rats) is reported as > 30 min.
